The conditions of data set [1]: human subjects given analgesic doses of aspirin; cited from earlier work.
Data set [2] concerns colorectal cells. As to conditions: previously reported; cited from earlier work.
For data set [3], the system named is SW480 cell line. The experiment in a line: MTT in vitro cytotoxicity assay on SW480 cells. It counts as cell-based.
Method: The MTT assay was utilised with a 24 hour incubation period of cell exposure to the compound. […] Experiments were carried out in triplicate; error bars indicate standard deviation.
The carrier molecule utilised (DMSO) in these experiments to prepare stock solutions was buffered with Tris-HCl buffer pH8.0 (0.5M) to mitigate against any pH changes caused by the addition of compounds to cell culture medium. All data shown were normalised to cells exposed only to buffered carrier molecule.
The result shown is the average of three independent experiments (error bars indicate mean+/−SEM). For comparative purposes, compound toxicity is shown alongside the equivalent concentration of salicylic acid (SA) and aspirin (as tested using the MTT assay with a 72 hour incubation of SW480 cells with compound). The carrier molecule utilised in these experiments was DMSO (dimethyl sulphoxide); all data shown were normalised to cells exposed only to carrier molecule.
Data set [4] concerns SW480 colon carcinoma cell line, HCT-116 colon cancer cell line, MDA-231MB breast cancer cell line. Put plainly: MTT titration assay (cell viability, 24 hours) on colon versus breast cancer cell lines. The class given is cell-based. On the procedure:
In the examples, assays mentioned are standard cytotoxicity assays and cell cultures used are prepared under standard conditions. The MTT assay referred to is MTT [3-(4,5-Dimethylthiazol-2-yl)-2,5-diphenyltetrazolium-bromide] assay (Mosmann T; J Immunol Methods 65: 55-63, 1983).
In FIG. 2, the in vitro toxicity of BCS, compound 508 of table 1, was investigated in further detail by titration against the SW480 colon carcinoma cell line and the DNA mismatch repair deficient HCT-116 colon cancer cell line and the MDA-231MB breast cancer cell line again utilising the MTT assay as described previously. The concentration-effect relationship for the three different cells lines is given in FIG. 2 (error bars indicate mean+/−S.D.). All experiments were performed in triplicate. For clarity, carrier molecule (DMSO) toxicity of the equivalent concentration utilised is also shown.

Data set [5] relates to MAC13 tumour. The experiment in a line: Tumour volume in MAC 13 tumour bearing mice. It counts as in vivo. The note with it: MAC13 tumour bearing NMRI mice, 1 mg/kg dissolved in PBS (FIG. 7). On the procedure:
NMRI mice were treated with MAC13 cells (5×10^6) sub cut in their flanks (Hussey H J, Bibby […]; British J. of Cancer, 73, 1187-1192, 1996), were treated with example compounds. Once the tumour was established the tumour was dissected and small fragments re-transplanted into more mice. […] The mice were monitored daily-weight, food and water consumption and tumour size was recorded using calipers. The experiment ended when the control mouse tumours started to ulcerate.

A value given as a limit tells only on which side of the number the result lay.

Regarding `CC(=O)Oc1ccccc1C(=O)O` [Aspirin, acetylsalicylic acid], in data set [1], the “salicylate levels achievable in serum” value is above 1 mM. For the same compound, the “toxicity to colorectal cells in vitro” value in data set [2] is on record as “exhibit toxicity”.

As to `O=C(CCC(=O)Oc1ccccc1C(=O)O)Oc1ccccc1C(=O)O` [Compound 508, bis(2-carboxyphenyl) succinate], in data set [3] (MTT assay, equivalent concentration of aspirin (FIG. 3, 48 hour incubation)), the “toxicity in comparison to aspirin” value is “more toxic in comparison to aspirin”. Also, the “specificity against the cell line derived from a colon cancer” value in data set [3] (SW480 versus MCF-7 and U373MG (FIG. 1), MTT) is given as “retains a degree of specificity”. In addition, the “specific toxicity to colorectal cancer cells” value in data set [4] (MTT titration, 24 hours, SW480, HCT-116 versus MDA-231MB) is reported as “specifically toxic to colorectal cancer cells”. Moreover, the “selectivity for SW480 compared with MDA-231-MB cells” value in data set [4] (cell viability assay, colon carcinoma versus breast cancer-derived cell line) is on record as “significantly more toxic to SW480 colorectal cancer cells than to MDA-231-MB cells”. In addition, the tumour growth entry in data set [5] is given as “decrease in tumour growth”.

Consider `O=C(/C=C/C(=O)Oc1ccccc1C(=O)O)Oc1ccccc1C(=O)O` [Compound 517, fumaroyldiaspirin], for which, in data set [5], the tumour growth entry is “decrease in tumour growth”.
